Columns and labels:
[1] = design: species or system Male Sprague-Dawley rats; details: rat, in vivo
Experimental: Male Sprague-Dawley rats (200 to 350 g; Charles River Breeding Laboratories, Raleigh, NC) were anesthetized with Inactin (100 mg/kg, i.p.; Byk Gulden). A jugular vein and femoral artery were isolated and cannulated with PE-50 polyethylene tubing (Clay-Adams). The femoral artery cannula was connected to a pressure transducer (Gould-Statham Model P23id) for blood pressure and heart rate recording. The jugular vein cannula was connected to an infusion pump (Sage Model 352) and an infusion of inulin (Inutest, Laevasan-Gesellschaft; 10% in 0.9% NaCl) and ytterbium-diethyltriaminepentaacetic acid (Yb-DTPA in water 6.0 mg/ml) was initiated at a rate of […]. […]
Urine volumes were measured gravimetrically (specific gravity = 1) and 50 µl was removed for determination of inulin and Yb-DTPA concentrations. Inulin concentrations in plasma and urine samples were determined according to the method of Heyrosky (1956). Yb concentrations were determined by inductively-coupled plasma emission spectrometry using a Model JY-38P (Instruments SA, Inc.) and a grating of 3600 lines/mm. The 369.42 nm Yb line and 5 one-second measurements were taken at the end of each sample aspiration to provide an average reading (Bumbier, et al., 1984). […] Plasma concentrations of inulin and Yb-DTPA for C₂ were estimated from values measured for C₁ and C₃. […]

[2] = test system: normal rat kidney; test: MR imaging of rat kidney after i.v. bolus of Yb-DTPA (signal intensity ratio Ipapilla/Imuscle over time); format: in vivo, rats; details: 1 ml of a 50 mM solution in saline, GE SIGNA 1.5T, images every 20 seconds, Figure 1
From the text: After administration of the chelate solution to the subject, imaging with any conventional MR imaging system may be begun. Preferably, a fast imaging sequence, such as gradient echo imaging is used. […] This graph plots the ratio of signal intensity of region of interest to signal intensity of surrounding muscle tissue over time, as shown, for example in Figure 1, discussed below.
As in the above comparative example, rats were provided with an infusion line and strapped in an MRI magnet GE SIGNA 1.5T. 1 ml of a 50 mM solution of Yb-DTPA in saline was injected (intravenously) as a bolus. Images were collected every 20 seconds and the signal intensity from the rat papilla (Ipapilla) and signal intensity for the surrounding rat muscle (Imuscle) were measured. […] The area under the curve is an index of GFR.

## ytterbium-diethylenetriamine pentaacetic acid [Yb-DTPA]
[1]
  Mean (± SEM) renal clearance (Cin, CYb): 1101 ± 47
  share of renal elimination via glomerular filtration: ~85%
[2]
  ratio of signal intensities Ipapilla/Imuscle against time: sharp decrease in the ratio and the slow rise

— patent EP0421697A2, “Contrast agents and methods for enhancing magnetic resonance imaging” (SMITHKLINE BEECHAM CORPORATION, priority 1989, dated 1991)
